Laboratory results taken from the supplement of paper PMC10307832.

compound: COc1nc(N)nc2c1ncn2[C@@H]1O[C@H](CO)[C@@H](O)[C@@H]1O [Nelarabine] + C[C@@H](Oc1cc(-c2cnn(C3CCNCC3)c2)cnc1N)c1c(Cl)ccc(F)c1Cl [Crizotinib] (partner 1 µM); assay: relative viability (nuclei count vs DMSO), 5 days (fraction); higher = more cells survive; conditions: first compound 1 µM
How it was run: (§1)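 After 5 days of treatment, lung cancer cells in 1536-well plates were fixed and stained in a single step (final 0.05% Triton X-100, 1% formaldehyde, 1 ug/ml Hoechst) and their nuclei counted on 4× images. Treatment had been applied by pin tool the day after seeding as one drug alone or as a fixed anchor-drug dose with five library-drug doses (not always all listed) in √10 steps. Relative viability is the nuclei count of treated wells divided by that of vehicle wells, and values are medians of duplicate plates.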

Going from NCI-H3122 to PC-3 [JPC-3], the relative viability rises from 0.268 to 0.968.

Compared with PC-14, RERF-LC-KJ is higher in relative viability: 0.868 for the first, 0.902 for the second.

Going from SK-LU-1 to SW 1573, the relative viability falls from 0.994 to 0.717.

UMC-11 showed a relative viability of 0.495.

compound: C=CCn1c(=O)c2cnc(Nc3ccc(N4CCN(C)CC4)cc3)nc2n1-c1cccc(C(C)(C)O)n1 [Adavosertib] + CC(C)C[C@H](NC(=O)[C@H](Cc1ccccc1)NC(=O)c1cnccn1)B(O)O [Bortezomib] (partner 0.002 µM); assay: as above; conditions: first compound 0.01 µM
How it was run: as §1

Going from NCI-H460 to NCI-H520, the relative viability falls from 1.14 to 0.708.

First: NCI-H596
Second: NCI-H647
The relative viability of the first is higher: 1.27 for the first, 1.01 for the second.

Going from NCI-H650 to NCI-H661, the relative viability rises from 0.597 to 0.941.

Going from NCI-H727 to NCI-H838, the relative viability rises from 0.867 to 0.993.

First: NCI-H1355
Second: NCI-H1437
The relative viability of the first is higher: 1.15 for the first, 0.56 for the second.

Going from NCI-H1650 to NCI-H1651, the relative viability rises from 0.223 to 0.902.

Compared with NCI-H1666, NCI-H1734 is higher in relative viability: 0.831 for the first, 1.01 for the second.

First: NCI-H1755
Second: NCI-H1792
The relative viability of the first is lower: 0.965 for the first, 0.974 for the second.

Compared with NCI-H1915, NCI-H1975 is lower in relative viability: 0.93 for the first, 0.356 for the second.

Compared with NCI-H1993, NCI-H2009 is higher in relative viability: 0.94 for the first, 1.09 for the second.

First: NCI-H2023
Second: NCI-H2085
The relative viability of the first is lower: 0.94 for the first, 1.04 for the second.

Going from NCI-H2087 to NCI-H2126, the relative viability rises from 0.883 to 1.12.

First: NCI-H2347
Second: NCI-H2405
The relative viability of the first is lower: 0.763 for the first, 0.984 for the second.

Compared with NCI-H3122, PC-3 [JPC-3] is lower in relative viability: 1.12 for the first, 0.808 for the second.

Compared with PC-14, RERF-LC-KJ is higher in relative viability: 1.05 for the first, 1.14 for the second.

First: SK-LU-1
Second: SW 1573
The relative viability of the first is lower: 1.07 for the first, 1.21 for the second.

UMC-11 was tested, and the relative viability was 0.737.

same assay, conditions: first compound 0.03162 µM

First: NCI-H460
Second: NCI-H520
The relative viability of the first is higher: 0.966 for the first, 0.803 for the second.

Compared with NCI-H596, NCI-H647 is lower in relative viability: 1.01 for the first, 0.748 for the second.

Compared with NCI-H650, NCI-H661 is lower in relative viability: 0.795 for the first, 0.695 for the second.

First: NCI-H727
Second: NCI-H838
The relative viability of the first is lower: 0.869 for the first, 0.946 for the second.

Going from NCI-H1355 to NCI-H1437, the relative viability falls from 1.17 to 0.596.

Compared with NCI-H1650, NCI-H1651 is higher in relative viability: 0.211 for the first, 0.963 for the second.

Going from NCI-H1666 to NCI-H1734, the relative viability rises from 0.87 to 1.01.

Compared with NCI-H1755, NCI-H1792 is higher in relative viability: 0.905 for the first, 0.918 for the second.

First: NCI-H1915
Second: NCI-H1975
The relative viability of the first is higher: 0.967 for the first, 0.353 for the second.

First: NCI-H1993
Second: NCI-H2009
The relative viability of the first is lower: 0.962 for the first, 1.05 for the second.

Going from NCI-H2023 to NCI-H2085, the relative viability rises from 0.937 to 1.05.

First: NCI-H2087
Second: NCI-H2126
The relative viability of the first is lower: 0.894 for the first, 1.17 for the second.

First: NCI-H2347
Second: NCI-H2405
The relative viability of the first is lower: 0.911 for the first, 1.01 for the second.

First: NCI-H3122
Second: PC-3 [JPC-3]
The relative viability of the first is higher: 0.992 for the first, 0.812 for the second.

First: PC-14
Second: RERF-LC-KJ
The relative viability of the first is lower: 0.873 for the first, 1.02 for the second.

Going from SK-LU-1 to SW 1573, the relative viability falls from 1.29 to 1.07.

Work on UMC-11 yielded a relative viability of 0.481.

same assay, conditions: first compound 0.1 µM

Compared with NCI-H460, NCI-H520 is lower in relative viability: 1.22 for the first, 0.553 for the second.

Going from NCI-H596 to NCI-H647, the relative viability rises from 1 to 1.11.

Compared with NCI-H650, NCI-H661 is lower in relative viability: 1.07 for the first, 0.889 for the second.

Going from NCI-H727 to NCI-H838, the relative viability falls from 0.877 to 0.754.

First: NCI-H1355
Second: NCI-H1437
The relative viability of the first is higher: 1.18 for the first, 0.475 for the second.

Compared with NCI-H1650, NCI-H1651 is higher in relative viability: 0.207 for the first, 1 for the second.

Compared with NCI-H1666, NCI-H1734 is higher in relative viability: 0.729 for the first, 1.02 for the second.

First: NCI-H1755
Second: NCI-H1792
The relative viability of the first is higher: 1.01 for the first, 0.972 for the second.

First: NCI-H1915
Second: NCI-H1975
The relative viability of the first is higher: 0.987 for the first, 0.399 for the second.

Going from NCI-H1993 to NCI-H2009, the relative viability falls from 1.09 to 1.04.

First: NCI-H2023
Second: NCI-H2085
The relative viability of the first is lower: 0.682 for the first, 1.05 for the second.

Going from NCI-H2087 to NCI-H2126, the relative viability rises from 1.05 to 1.11.

First: NCI-H2347
Second: NCI-H2405
The relative viability of the first is lower: 0.875 for the first, 1.01 for the second.

Compared with NCI-H3122, PC-3 [JPC-3] is lower in relative viability: 1.11 for the first, 0.853 for the second.

First: PC-14
Second: RERF-LC-KJ
The relative viability of the first is lower: 0.926 for the first, 1.19 for the second.

SK-LU-1 and SW 1573 are the same in relative viability: 1.16 for the first, 1.16 for the second.

With UMC-11 the relative viability was 0.927.

same assay, conditions: first compound 0.3162 µM

Compared with NCI-H460, NCI-H520 is lower in relative viability: 0.966 for the first, 0.535 for the second.

Compared with NCI-H596, NCI-H647 is lower in relative viability: 1.14 for the first, 0.642 for the second.

Compared with NCI-H650, NCI-H661 is higher in relative viability: 0.663 for the first, 0.738 for the second.

Compared with NCI-H727, NCI-H838 is lower in relative viability: 0.945 for the first, 0.824 for the second.

Going from NCI-H1355 to NCI-H1437, the relative viability falls from 1.16 to 0.518.

Going from NCI-H1650 to NCI-H1651, the relative viability rises from 0.194 to 0.935.

Going from NCI-H1666 to NCI-H1734, the relative viability rises from 0.62 to 0.696.

Compared with NCI-H1755, NCI-H1792 is lower in relative viability: 1.03 for the first, 0.968 for the second.

Going from NCI-H1915 to NCI-H1975, the relative viability falls from 0.972 to 0.324.

Compared with NCI-H1993, NCI-H2009 is lower in relative viability: 1.11 for the first, 1.02 for the second.

Going from NCI-H2023 to NCI-H2085, the relative viability rises from 0.437 to 1.11.

First: NCI-H2087
Second: NCI-H2126
The relative viability of the first is lower: 0.918 for the first, 1.15 for the second.

First: NCI-H2347
Second: NCI-H2405
The relative viability of the first is lower: 0.763 for the first, 1.07 for the second.

Going from NCI-H3122 to PC-3 [JPC-3], the relative viability falls from 1.09 to 0.793.

Compared with PC-14, RERF-LC-KJ is higher in relative viability: 0.334 for the first, 1.28 for the second.

Compared with SK-LU-1, SW 1573 is higher in relative viability: 0.479 for the first, 1.16 for the second.

In the case of UMC-11, the relative viability is reported as 0.708.
